Source: US7476672B2, “Acetylenic compounds useful in treating inflammatory disorders” (Janssen Pharmaceutica N.V., priority 2002, dated 2009)
Structures can show the parent of a compound that is named as a salt. Each block holds one molecule with its values, some of them ahead of it.

Key:
NADPH-oxidase = biological target: T1, NADPH-oxidase (Homo sapiens, UniProt P04839); assay: Oxidase Inhibition Assay (PMA-stimulated superoxide-mediated reduction of Cytochrome c, whole cells); type: cell-based; settings: human neutrophils, PMA 0.5 μM, absorbance at 550 nm
T1 construct: endogenous in cells; host or cells: human neutrophils isolated from buffy coat
T1 sequence (P04839 1-570): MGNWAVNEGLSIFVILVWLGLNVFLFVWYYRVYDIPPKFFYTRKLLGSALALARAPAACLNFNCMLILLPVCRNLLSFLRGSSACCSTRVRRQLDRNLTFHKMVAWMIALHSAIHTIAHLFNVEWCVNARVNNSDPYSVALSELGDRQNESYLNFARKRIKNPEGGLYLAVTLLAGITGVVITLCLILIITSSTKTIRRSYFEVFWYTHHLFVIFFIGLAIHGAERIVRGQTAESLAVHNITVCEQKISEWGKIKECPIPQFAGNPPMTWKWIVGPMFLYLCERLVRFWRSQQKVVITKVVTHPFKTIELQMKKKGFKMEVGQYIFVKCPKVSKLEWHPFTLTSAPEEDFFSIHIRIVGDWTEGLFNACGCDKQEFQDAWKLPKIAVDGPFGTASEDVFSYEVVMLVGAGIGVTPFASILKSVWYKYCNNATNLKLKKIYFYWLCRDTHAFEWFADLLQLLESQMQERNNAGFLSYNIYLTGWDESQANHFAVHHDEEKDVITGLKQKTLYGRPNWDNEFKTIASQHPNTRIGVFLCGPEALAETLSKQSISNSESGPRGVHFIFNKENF
Method: Whole cells (human neutrophils) are incubated with a pro-inflammatory agonist phorbol myristate acetate (PMA) in the presence or absence of test compound to measure the superoxide-mediated reduction of Cytochrome c at 550 nm. Inhibition of the oxidase is determined by a decreased absorbance at 550 nm, in response to test compound, relative to the absorbance seen with a vehicle control.
The buffy coat from one unit of blood is split evenly into four 50 mL tubes. To each tube 30 mL 3% Dextran (in 0.9% NaCl) is added and the tubes are inverted to mix. Tubes are allowed to sit undisturbed for 25 minutes. The resulting supernatant is recovered into four fresh tubes and centrifuged for 10 minutes at 600×g, 4° C. The supernatant is discarded and pellets are resuspended in 35 mL 0.9% saline. 10 mL Ficoll-Paque PLUS (Pharmacia Biotech AB) is layered beneath the cell suspension and centrifuged at 600×g for 40 minutes at room temperature. The supernatant is again discarded and tubes are tapped to loosen the resulting pellets. 20 mL 0.2% ice cold saline is added for 30 seconds followed by 20 mL 1.6% ice cold saline to lyse the remaining erythrocytes in the pellets. The pellets are centrifuged for 10 minutes at 600×g, 4° C., and the supernatant is discarded. The neutrophil pellets are resuspended in HBSS-glucose buffer (1 mg/mL), adding 2.5 mL to each tube for a total volume of 10 mL. The cell suspension is then counted on a hemocytometer.
The cell suspension is diluted to a concentration of 5×10^6/mL in HBSS-glucose and treated with 1 μg/mL Cytochalasin B (5 mg/mL DMSO) for 10 minutes at 37° C. in a shaking water bath. Cells are diluted to 6×10^5 cells/mL in 92 μM Cytochrome C for a final concentration of 5×10^4 cells/well.
The NADPH-oxidase assay is run on a Biomek 2000 workstation. The workstation adds 2.5 μL compound per well from source plates plus 12.5 μL per well 4 μM PMA (agonist). This volume is brought up to 100 μL total per well in the assay plates upon the addition of the prepared cells (85 μL). The final concentration of drug is 25 μM and PMA is 0.5 μM under these conditions.
The QC curve is a dose-response curve (from about 31.25 nM to about 4000 nM) for competitive binding against a known oxidase inhibitor such as DPI (diphenylene iodonium chloride). The format used for each compound tested is as follows:
The plates are incubated for 1 hour at 37° C. without CO2. The plates are then incubated at room temperature for 30 minutes and the absorbance is read at 550 nm.

SMILES: CCC(COc1ccc(C#Cc2ccc(Cl)cc2)cc1C)NCc1ccc(CN)cc1 (stereo not drawn) (as salt: HCl) [Compound 23, N-[1-[[4-[(4-chlorophenyl)ethynyl]-2-methylphenoxy]methyl]propyl]-1,4-benzenedimethanamine]
melting point: 261.5 to 264 °C

SMILES: Cc1cc(C#Cc2ccc(Cl)cc2)ccc1OCCNCc1ccc(CN)cc1 [Compound 21, N-[2-[4-[(4-chlorophenyl)ethynyl]-2-methylphenoxy]ethyl]-1,4-benzenedimethanamine]
IC50 (NADPH-oxidase): 1770 nM

SMILES: Cc1cc(C#Cc2ccc(Cl)cc2)ccc1OCCNCc1ccc(CNC(C)(C)C)cc1 [Compound 19, N^1-[2-[4-[(4-chlorophenyl)ethynyl]-2-methylphenoxy]ethyl]-N^4-(1,1-dimethylethyl)-1,4-benzenedimethanamine]
IC50 (NADPH-oxidase): 3330 nM

SMILES: CCCNCc1ccc(CNCCOc2ccc(C#Cc3ccc(Cl)cc3)cc2)cc1 [Compound 2, N^1-[2-[4-[(4-chlorophenyl)ethynyl]phenoxy]ethyl]-N^4-propyl-1,4-benzenedimethanamine]
IC50 (NADPH-oxidase): 2070 nM

SMILES: CCCCCCNCc1ccc(CNCCOc2ccc(C#Cc3ccc(Cl)cc3)cc2C)cc1 [Compound 12, N^1-[2-[4-[(4-chlorophenyl)ethynyl]-2-methylphenoxy]ethyl]-N^4-hexyl-1,4-benzenedimethanamine]
IC50 (NADPH-oxidase): 11100 nM

SMILES: CCCCCCCNCc1ccc(CNCCOc2ccc(C#Cc3ccc(Cl)cc3)cc2C)cc1 [Compound 9, N^1-[2-[4-[(4-chlorophenyl)ethynyl]-2-methylphenoxy]ethyl]-N^4-heptyl-1,4-benzenedimethanamine]
IC50 (NADPH-oxidase): 6660 nM

SMILES: Cc1cc(C#Cc2ccc(Cl)cc2)ccc1OCCNCc1ccc(CNCCN2CCOCC2)cc1 [Compound 16, N^1-[2-[4-[(4-chlorophenyl)ethynyl]-2-methylphenoxy]ethyl]-N^4-[2-(4-morpholinyl)ethyl]-1,4-benzenedimethanamine]
IC50 (NADPH-oxidase): 2660 nM

SMILES: Cc1cc(C#Cc2ccc(Cl)cc2)ccc1OCCNCc1ccc(CNCc2ccccc2)cc1 [Compound 8, N^1-[2-[4-[(4-chlorophenyl)ethynyl]-2-methylphenoxy]ethyl]-N^4-(phenylmethyl)-1,4-benzenedimethanamine]
IC50 (NADPH-oxidase): 3240 nM

SMILES: Cc1cc(C#Cc2ccc(Cl)cc2)ccc1OCCNCc1ccc(CNCCCc2ccccc2)cc1 [Compound 10, N^1-[2-[4-[(4-chlorophenyl)ethynyl]-2-methylphenoxy]ethyl]-N^4-(3-phenylpropyl)-1,4-benzenedimethanamine]
IC50 (NADPH-oxidase): 8340 nM

SMILES: Cc1cc(C#Cc2ccc(Cl)cc2)ccc1OCCNCc1ccc(CNCCC(C)C)cc1 [Compound 6, N^1-[2-[4-[(4-chlorophenyl)ethynyl]-2-methylphenoxy]ethyl]-N^4-(3-methylbutyl)-1,4-benzenedimethanamine]
IC50 (NADPH-oxidase): 2280 nM

SMILES: Cc1ccc(C#Cc2ccc(OCC(C)NCc3ccc(CN)cc3)c(Cl)c2)cc1 (stereo not drawn) (as salt: HCl) [Compound 24, N-[2-[2-chloro-4-[(4-methylphenyl)ethynyl]phenoxy]-1-methylethyl]-1,4-benzenedimethanamine]
melting point: > 300 °C

SMILES: Cc1cc(C#Cc2ccc(Cl)cc2)ccc1OCCNCc1ccc(CNCCN2CCCC2)cc1 [Compound 14, N^1-[2-[4-[(4-chlorophenyl)ethynyl]-2-methylphenoxy]ethyl]-N^4-[2-(1-pyrrolidinyl)ethyl]-1,4-benzenedimethanamine]
IC50 (NADPH-oxidase): 2350 nM

SMILES: CC(COc1ccc(C#Cc2ccc(Cl)cc2)cc1Cl)NCc1ccc(CN)cc1 (stereo not drawn) (as salt: HCl) [Compound 25, N-[2-[2-chloro-4-[(4-chlorophenyl)ethynyl]phenoxy]-1-methylethyl]-1,4-benzenedimethanamine]
melting point: > 300 °C

SMILES: Cc1cc(C#Cc2ccc(Cl)cc2)ccc1OCCNCc1ccc(CNCCCOC(=O)C2CCCCN2)cc1 (stereo not drawn) [Compound 18, 3-[[[4-[[[2-[4-[(4-chlorophenyl)ethynyl]-2-methylphenoxy]ethyl]amino]methyl]phenyl]methyl]amino]propyl ester 2-piperidinecarboxylic acid]
IC50 (NADPH-oxidase): 3010 nM

SMILES: CC(C)CCNCc1ccc(CNCCOc2ccc(C#Cc3ccc(Cl)cc3)cc2)cc1 [Compound 5, N^1-[2-[4-[(4-chlorophenyl)ethynyl]phenoxy]ethyl]-N^4-(3-methylbutyl)-1,4-benzenedimethanamine]
IC50 (NADPH-oxidase): 2170 nM

SMILES: Cc1cc(C#Cc2ccc(Cl)cc2)ccc1OCC(C)NCc1ccc(CN)cc1 (stereo not drawn) (as salt: HCl) [Compound 1, N-[2-[4-[(4-chlorophenyl)ethynyl]-2-methylphenoxy]-1-methylethyl]-1,4-benzenedimethanamine]
melting point: > 300 °C

SMILES: CC(COc1ccc(C#Cc2ccc(F)cc2)cc1Cl)NCc1ccc(CN)cc1 (stereo not drawn) (as salt: HCl) [Compound 26, N-[2-[2-chloro-4-[(4-fluorophenyl)ethynyl]phenoxy]-1-methylethyl]-1,4-benzenedimethanamine]
melting point: > 300 °C

Second part, the molecule after the results:

IC50 (NADPH-oxidase): 800 nM
SMILES: CCC(COc1ccc(C#Cc2ccc(Cl)cc2)cc1C)NCc1ccc(CN)cc1 (stereo not drawn) [Compound 23, N-[1-[[4-[(4-chlorophenyl)ethynyl]-2-methylphenoxy]methyl]propyl]-1,4-benzenedimethanamine]

IC50 (NADPH-oxidase): 1380 nM
SMILES: CCCNCc1ccc(CNCCOc2ccc(C#Cc3ccc(Cl)cc3)cc2C)cc1 [Compound 3, N^1-[2-[4-[(4-chlorophenyl)ethynyl]-2-methylphenoxy]ethyl]-N^4-propyl-1,4-benzenedimethanamine]

IC50 (NADPH-oxidase): 1200 nM
SMILES: CC(C)NCc1ccc(CNCCOc2ccc(C#Cc3ccc(Cl)cc3)cc2)cc1 [Compound 4, N^1-[2-[4-[(4-chlorophenyl)ethynyl]phenoxy]ethyl]-N^4-(1-methylethyl)-1,4-benzenedimethanamine]

IC50 (NADPH-oxidase): 700 nM
SMILES: Cc1ccc(C#Cc2ccc(OCC(C)NCc3ccc(CN)cc3)c(Cl)c2)cc1 (stereo not drawn) [Compound 24, N-[2-[2-chloro-4-[(4-methylphenyl)ethynyl]phenoxy]-1-methylethyl]-1,4-benzenedimethanamine]

IC50 (NADPH-oxidase): 700 nM
SMILES: Cc1cc(C#Cc2ccc(Cl)cc2)ccc1OCC(C)NCc1ccc(CN)cc1 (stereo not drawn) [Compound 1, N-[2-[4-[(4-chlorophenyl)ethynyl]-2-methylphenoxy]-1-methylethyl]-1,4-benzenedimethanamine]

IC50 (NADPH-oxidase): 1610 nM
SMILES: Cc1cc(C#Cc2ccc(Cl)cc2)ccc1OCCNCc1ccc(CNCCCN2CCOCC2)cc1 [Compound 15, N^1-[2-[4-[(4-chlorophenyl)ethynyl]-2-methylphenoxy]ethyl]-N^4-[3-(4-morpholinyl)propyl]-1,4-benzenedimethanamine]

IC50 (NADPH-oxidase): 770 nM
SMILES: CN(C)CCCNCc1ccc(CNCCOc2ccc(C#Cc3ccc(Cl)cc3)cc2)cc1 [Compound 7, N^1-[2-[4-[(4-chlorophenyl)ethynyl]phenoxy]ethyl]-N^4-[3-(dimethylamino)propyl]-1,4-benzenedimethanamine]

IC50 (NADPH-oxidase): 850 nM
SMILES: CC(COc1ccc(C#Cc2ccccc2)cc1Cl)NCc1ccc(CN)cc1 (stereo not drawn) [Compound 22, N-[2-[2-chloro-4-(phenylethynyl)phenoxy]-1-methylethyl]-1,4-benzenedimethanamine]

IC50 (NADPH-oxidase): 700 nM
SMILES: CC(COc1ccc(C#Cc2ccc(Cl)cc2)cc1Cl)NCc1ccc(CN)cc1 (stereo not drawn) [Compound 25, N-[2-[2-chloro-4-[(4-chlorophenyl)ethynyl]phenoxy]-1-methylethyl]-1,4-benzenedimethanamine]

IC50 (NADPH-oxidase): 1050 nM
SMILES: CC(COc1ccc(C#Cc2ccc(F)cc2)cc1Cl)NCc1ccc(CN)cc1 (stereo not drawn) [Compound 26, N-[2-[2-chloro-4-[(4-fluorophenyl)ethynyl]phenoxy]-1-methylethyl]-1,4-benzenedimethanamine]
